Reference: publication PMC11912224, “A general approach for activity-based protein profiling of oxidoreductases with redox-differentiated diarylhalonium warheads” (Chemical Science, 2025)

Legend:
Experiment in all cases: covalent labelling, streptavidin enrichment, LC-MS/MS
Details in all cases: 30 uM probe, 1 h, mouse liver pieces
[1] = biological target: T1, aldehyde oxidase 1 (AOX1) (Mus musculus, UniProt O54754)
T1 construct: native, in intact mouse liver pieces
T1 sequence (O54754 1-1333): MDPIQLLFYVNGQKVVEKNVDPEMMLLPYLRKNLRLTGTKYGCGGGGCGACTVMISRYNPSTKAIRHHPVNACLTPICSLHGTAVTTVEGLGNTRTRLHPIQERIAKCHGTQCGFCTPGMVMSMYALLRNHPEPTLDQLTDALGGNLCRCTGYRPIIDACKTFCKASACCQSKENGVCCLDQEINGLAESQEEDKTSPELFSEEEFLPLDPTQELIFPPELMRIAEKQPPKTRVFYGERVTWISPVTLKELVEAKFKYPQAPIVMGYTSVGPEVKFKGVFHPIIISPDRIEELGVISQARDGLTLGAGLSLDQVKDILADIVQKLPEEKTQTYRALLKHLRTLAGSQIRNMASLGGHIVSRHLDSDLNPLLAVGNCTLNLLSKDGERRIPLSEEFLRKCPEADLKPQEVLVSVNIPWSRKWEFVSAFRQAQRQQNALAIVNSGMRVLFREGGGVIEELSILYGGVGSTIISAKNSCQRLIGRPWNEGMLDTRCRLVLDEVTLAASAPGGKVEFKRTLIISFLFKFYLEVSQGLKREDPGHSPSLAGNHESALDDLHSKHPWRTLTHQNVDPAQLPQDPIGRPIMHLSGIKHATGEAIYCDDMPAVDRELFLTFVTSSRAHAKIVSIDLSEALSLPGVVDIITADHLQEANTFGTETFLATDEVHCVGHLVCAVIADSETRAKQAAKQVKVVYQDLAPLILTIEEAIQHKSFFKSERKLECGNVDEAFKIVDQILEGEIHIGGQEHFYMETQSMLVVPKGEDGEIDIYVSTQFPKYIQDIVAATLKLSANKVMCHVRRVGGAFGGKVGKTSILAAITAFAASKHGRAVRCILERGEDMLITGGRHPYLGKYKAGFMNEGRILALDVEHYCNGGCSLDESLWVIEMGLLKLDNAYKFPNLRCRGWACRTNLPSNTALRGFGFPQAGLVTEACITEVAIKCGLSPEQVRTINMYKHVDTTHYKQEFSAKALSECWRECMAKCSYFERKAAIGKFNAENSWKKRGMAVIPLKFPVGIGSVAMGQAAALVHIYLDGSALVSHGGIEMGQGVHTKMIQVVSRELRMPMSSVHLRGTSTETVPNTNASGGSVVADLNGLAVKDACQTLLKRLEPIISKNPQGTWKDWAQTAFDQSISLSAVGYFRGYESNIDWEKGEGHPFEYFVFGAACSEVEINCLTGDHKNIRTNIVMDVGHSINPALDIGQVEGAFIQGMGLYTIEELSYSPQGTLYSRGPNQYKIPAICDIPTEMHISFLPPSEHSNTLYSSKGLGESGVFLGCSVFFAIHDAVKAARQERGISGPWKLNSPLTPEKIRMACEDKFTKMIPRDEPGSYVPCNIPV

[2] = biological target: T2, choline dehydrogenase (CHDH, mCHDH) (Mus musculus, UniProt Q8BJ64)
T2 construct: native, in intact mouse liver pieces
T2 sequence (Q8BJ64 35-596): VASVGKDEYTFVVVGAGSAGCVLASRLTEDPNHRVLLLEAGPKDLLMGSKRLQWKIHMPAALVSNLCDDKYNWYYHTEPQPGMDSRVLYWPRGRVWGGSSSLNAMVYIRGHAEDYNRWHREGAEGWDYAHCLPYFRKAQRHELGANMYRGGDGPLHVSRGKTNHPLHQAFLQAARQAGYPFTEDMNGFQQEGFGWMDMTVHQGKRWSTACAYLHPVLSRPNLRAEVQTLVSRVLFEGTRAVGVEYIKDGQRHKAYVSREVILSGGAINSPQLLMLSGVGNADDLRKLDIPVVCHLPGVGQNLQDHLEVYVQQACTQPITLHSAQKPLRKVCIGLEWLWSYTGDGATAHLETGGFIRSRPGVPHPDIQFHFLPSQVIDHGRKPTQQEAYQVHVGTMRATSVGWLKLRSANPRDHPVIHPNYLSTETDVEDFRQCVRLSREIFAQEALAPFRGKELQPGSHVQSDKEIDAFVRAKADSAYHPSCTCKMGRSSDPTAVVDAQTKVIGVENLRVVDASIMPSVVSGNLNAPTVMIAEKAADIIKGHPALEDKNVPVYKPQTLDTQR

[3] = biological target: T3, monoamine oxidase A (MAOA) (Mus musculus, UniProt Q64133)
T3 construct: native, in intact mouse liver pieces
T3 sequence (Q64133 1-526): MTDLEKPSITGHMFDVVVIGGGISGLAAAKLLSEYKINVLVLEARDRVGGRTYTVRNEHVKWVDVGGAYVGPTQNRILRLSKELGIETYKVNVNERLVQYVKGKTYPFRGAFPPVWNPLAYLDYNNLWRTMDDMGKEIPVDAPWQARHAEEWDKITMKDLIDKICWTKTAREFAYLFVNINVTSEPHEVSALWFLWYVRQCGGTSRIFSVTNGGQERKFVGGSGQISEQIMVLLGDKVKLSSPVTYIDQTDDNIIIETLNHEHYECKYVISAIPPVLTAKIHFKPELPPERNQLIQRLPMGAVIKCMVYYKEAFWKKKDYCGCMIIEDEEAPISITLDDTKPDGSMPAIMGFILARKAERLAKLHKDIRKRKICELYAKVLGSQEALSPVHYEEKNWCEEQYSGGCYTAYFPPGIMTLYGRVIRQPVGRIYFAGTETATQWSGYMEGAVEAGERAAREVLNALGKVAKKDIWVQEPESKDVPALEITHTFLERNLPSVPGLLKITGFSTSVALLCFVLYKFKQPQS

CYP2D10 = biological target: T4, CYP2D10 (Mus musculus, UniProt P24456)
T4 construct: native, in intact mouse liver pieces
T4 sequence (P24456 1-504): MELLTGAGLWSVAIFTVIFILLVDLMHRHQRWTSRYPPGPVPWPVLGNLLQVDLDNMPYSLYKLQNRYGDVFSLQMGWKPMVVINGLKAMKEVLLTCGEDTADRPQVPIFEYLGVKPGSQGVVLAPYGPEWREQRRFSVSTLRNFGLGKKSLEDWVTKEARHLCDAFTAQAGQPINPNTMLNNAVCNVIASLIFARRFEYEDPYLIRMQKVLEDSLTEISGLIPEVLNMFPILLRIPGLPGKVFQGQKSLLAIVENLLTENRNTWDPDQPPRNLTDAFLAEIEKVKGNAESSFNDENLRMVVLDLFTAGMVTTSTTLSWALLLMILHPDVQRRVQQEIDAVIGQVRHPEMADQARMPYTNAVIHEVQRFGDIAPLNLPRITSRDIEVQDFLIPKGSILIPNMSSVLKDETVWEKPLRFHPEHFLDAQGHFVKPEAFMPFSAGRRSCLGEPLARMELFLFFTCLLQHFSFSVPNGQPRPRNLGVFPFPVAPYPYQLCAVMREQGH

[4] = biological target: T5, glycerol-3-phosphate dehydrogenase mitochondrial (GPD2) (Mus musculus, UniProt Q64521)
T5 construct: native, in intact mouse liver pieces
T5 sequence (Q64521 43-727): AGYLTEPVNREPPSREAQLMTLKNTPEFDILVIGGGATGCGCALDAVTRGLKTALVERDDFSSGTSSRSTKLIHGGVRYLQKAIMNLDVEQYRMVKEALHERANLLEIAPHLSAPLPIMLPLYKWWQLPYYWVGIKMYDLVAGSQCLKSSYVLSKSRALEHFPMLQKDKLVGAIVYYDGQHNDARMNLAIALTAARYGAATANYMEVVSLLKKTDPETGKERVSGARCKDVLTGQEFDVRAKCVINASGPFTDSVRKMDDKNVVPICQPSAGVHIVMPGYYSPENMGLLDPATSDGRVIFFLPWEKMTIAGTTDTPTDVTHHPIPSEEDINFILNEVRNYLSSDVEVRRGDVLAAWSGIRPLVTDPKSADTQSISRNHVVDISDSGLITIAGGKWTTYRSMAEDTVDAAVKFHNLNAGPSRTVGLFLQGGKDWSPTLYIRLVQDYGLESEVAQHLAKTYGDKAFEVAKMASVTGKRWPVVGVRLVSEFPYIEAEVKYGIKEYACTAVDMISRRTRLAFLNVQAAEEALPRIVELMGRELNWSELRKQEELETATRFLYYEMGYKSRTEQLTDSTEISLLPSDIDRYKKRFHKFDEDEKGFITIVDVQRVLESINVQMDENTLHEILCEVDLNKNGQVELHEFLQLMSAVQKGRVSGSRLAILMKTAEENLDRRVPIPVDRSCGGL

For [N-]=[N+]=NCCCCCCCCCCNC(=O)c1ccc2c(c1)[I+]c1ccccc1-2 [3da, diphenyleneiodonium-based probe 3da], the “covalent labelling, streptavidin enrichment, LC-MS/MS” value (from here on “covalent labelling”) [1] was “five are oxidoreductases (CYP27A1, CYP2D10, CYP3A25, HMOX2, and AOX1)”.
For [N-]=[N+]=NCCCCCCCCCCNC(=O)c1ccc2c(c1)-c1ccccc1[Cl+]2 [3ha, diphenylenechloronium-based probe 3ha], the “covalent labelling” value [2] was “choline dehydrogenase (CHDH), which is similar to the bacterial choline oxidase”.
[N-]=[N+]=NCCOCCOCCOCCNC(=O)c1ccc2c(c1)-c1ccccc1[Br+]2 [3fb, diphenylenebromonium probe 3fb] was tested, and the “covalent labelling” value [3] was “MAOA exclusively by diarylbromonium probe 3fb”.
[N-]=[N+]=NCCCCCCCCCCNC(=O)c1ccc2c(c1)[Br+]c1ccccc1-2 [3ga, diphenylenebromonium-based probe 3ga] was tested, and the “covalent labelling” value (CYP2D10) was “two significantly enriched CYP450s (CYP27A1, CYP2D10)” and the “covalent labelling” value [4] was “GPD2 was exclusively enriched by diarylbromonium probe 3ga”.
